Here are results for 2 compounds from publication PMC4804716 (The FEBS journal, 2015).

Positions count from the first letter of the chain named. Some results are limits rather than exact numbers.

In data set [1] the target is T1, Placenta wild type hTrxR (Homo sapiens, UniProt Q16881).
T1 sequence (Q16881 1-499 isoform Q16881-5): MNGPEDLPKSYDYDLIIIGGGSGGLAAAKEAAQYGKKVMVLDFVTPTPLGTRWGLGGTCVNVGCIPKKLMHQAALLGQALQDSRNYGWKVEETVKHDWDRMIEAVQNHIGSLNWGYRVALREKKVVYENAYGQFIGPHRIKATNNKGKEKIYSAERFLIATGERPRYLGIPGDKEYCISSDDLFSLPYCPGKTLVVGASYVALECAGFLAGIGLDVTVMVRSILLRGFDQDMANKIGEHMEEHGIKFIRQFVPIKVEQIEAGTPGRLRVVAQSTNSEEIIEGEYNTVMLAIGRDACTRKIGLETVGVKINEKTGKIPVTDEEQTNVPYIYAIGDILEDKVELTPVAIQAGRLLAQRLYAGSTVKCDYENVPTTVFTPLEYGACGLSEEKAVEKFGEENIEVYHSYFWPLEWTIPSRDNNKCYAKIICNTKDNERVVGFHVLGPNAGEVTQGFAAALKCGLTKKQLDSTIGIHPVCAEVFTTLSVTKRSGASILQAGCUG
In words: hTrxR Trx assay. It counts as biochemical.

In data set [2] the target is T2, human glutathione reductase (hGR) (Homo sapiens, UniProt P00390).
T2 sequence (P00390 1-479 isoform P00390-2): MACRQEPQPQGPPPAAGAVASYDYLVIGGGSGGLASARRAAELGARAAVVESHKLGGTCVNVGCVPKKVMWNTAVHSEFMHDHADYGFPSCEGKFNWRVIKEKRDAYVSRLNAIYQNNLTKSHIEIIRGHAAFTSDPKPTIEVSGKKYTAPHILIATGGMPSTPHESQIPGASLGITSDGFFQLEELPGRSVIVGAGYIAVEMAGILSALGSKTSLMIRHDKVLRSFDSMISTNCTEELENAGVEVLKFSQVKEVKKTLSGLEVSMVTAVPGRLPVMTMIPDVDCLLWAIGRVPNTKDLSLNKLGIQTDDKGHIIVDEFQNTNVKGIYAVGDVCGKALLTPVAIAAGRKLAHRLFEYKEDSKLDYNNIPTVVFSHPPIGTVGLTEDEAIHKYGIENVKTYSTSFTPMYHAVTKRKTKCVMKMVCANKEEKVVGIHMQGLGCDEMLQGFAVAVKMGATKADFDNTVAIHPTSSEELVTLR
In words: hGR assay. It counts as biochemical.

The nature of data set [3]: Cyclic voltammetry of menadione derivatives. It counts as physicochemical. To be noted: for Epa1 / Ipc1/Ipa1 / E^1½: first wave; for Ipc1/Ipa1 / ΔEp (first wave): 0.1 M n-Bu4NPF6, v = 200 mV s^−1; for E^1½: 0.1 M n-Bu4NPF6, reference KCl(3 M)/Ag/AgCl; for ΔEp (first wave): ΔE = Epa-Epc.
Data set [4] concerns the target T3, Schistosoma mansoni thioredoxin glutathione reductase (SmTGR) (Schistosoma mansoni, UniProt Q962Y6).
T3 sequence (Q962Y6 1-598): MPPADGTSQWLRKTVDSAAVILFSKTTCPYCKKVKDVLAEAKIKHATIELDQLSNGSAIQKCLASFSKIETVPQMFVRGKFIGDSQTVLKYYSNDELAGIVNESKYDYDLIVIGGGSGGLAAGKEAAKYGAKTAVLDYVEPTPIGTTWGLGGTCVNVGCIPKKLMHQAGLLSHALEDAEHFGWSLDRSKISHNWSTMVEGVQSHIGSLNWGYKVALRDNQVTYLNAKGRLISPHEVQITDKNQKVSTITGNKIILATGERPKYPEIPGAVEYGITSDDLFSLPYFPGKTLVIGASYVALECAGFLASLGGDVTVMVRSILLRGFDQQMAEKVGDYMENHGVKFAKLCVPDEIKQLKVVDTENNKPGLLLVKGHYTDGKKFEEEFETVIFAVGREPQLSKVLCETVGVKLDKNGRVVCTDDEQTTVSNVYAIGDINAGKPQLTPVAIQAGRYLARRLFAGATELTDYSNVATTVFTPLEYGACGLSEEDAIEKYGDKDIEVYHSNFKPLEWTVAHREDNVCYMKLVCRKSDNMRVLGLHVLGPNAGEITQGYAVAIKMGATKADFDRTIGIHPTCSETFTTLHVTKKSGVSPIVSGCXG
In words: SmTGR DTNB assay. It counts as biochemical.

Data set [5] addresses T3, Schistosoma mansoni thioredoxin glutathione reductase (SmTGR).
The target of data set [6] is T1, Placenta wild type hTrxR. Kind of data set: hTrxR DTNB assay. It counts as biochemical.
The target of the next data set is T4, Sec498Cys TrxR (Homo sapiens, UniProt Q16881).
T4 sequence (Q16881 with tags, fused parts or gaps isoform Q16881-5): T1 sequence (Q16881 1-499 isoform Q16881-5) with U498C
Kind of data set: hTrxR mutant DTNB assay. It counts as biochemical.

The subject of another data set is S. mansoni worms. Kind of data set: Antischistosomal activity against adult, ex vivo worms. It counts as cell-based, Schistosoma mansoni. The following applies: for antischistosomal activity against cultured ex vivo worms: 50 μM compound alone.
Data set [7] can be described thus: Glutathionylation reaction kinetics. To be noted: pH 7.5. It counts as physicochemical.
For data set [8], the target named is T3, Schistosoma mansoni thioredoxin glutathione reductase (SmTGR). In words: Time-dependent inactivation of SmTGR. The following applies: high inhibitor concentrations, 5 min incubation without NADPH.
Data set [9] can be described thus: pKa estimation by absorption spectrophotometry. It counts as physicochemical.
A short description of data set [10]: Cytotoxicity against human MRC-5 cells. It counts as cell-based. To be noted: human lung MRC-5 fibroblasts (MRC-5SV2 cells).
Setting [11] is: DMSO, 0.1 M n-Bu4NPF6, v = 200 mV s^−1, reference KCl(3 M)/Ag/AgCl.
Setting [12] is: second wave, irr: irreversible reduction.

By IC50 is commonly meant the point on the concentration scale where inhibition reaches its midpoint. `COc1ccc(OCC2=C(C)C(=O)c3ccccc3C2=O)cc1C(F)(F)F` [Compound 7, 2-((4-Methoxy-3-(trifluoromethyl)phenoxy)methyl)-3-methylnaphthalene-1,4-dione]: the IC50 is 800 to 1500 nM against Placenta wild type hTrxR [1] (IC50 hTrxR, text summary spanning the Trx assay and the DTNB assay); 12000 nM in data set [2]; 200 nM in data set [4]; 1500 nM on Placenta wild type hTrxR [6]; > 50000 nM against Sec498Cys TrxR. Further, the “IC50 fold higher for hTrxR than for SmTGR” value at Placenta wild type hTrxR [1] (selectivity hTrxR versus SmTGR) was “around 5 fold”. Also, the Epa1 in data set [3] (setting [11]) is listed as −0.506 V. For the same compound, the Epc2 in [3] (DMSO, 0.1 M n-Bu4NPF6, v = 200 mV s^−1, reference KCl(3 M)/Ag/AgCl, second wave) is recorded as −1.132 V. In data set [3] (DMSO), this compound returned an Ipc1/Ipa1 of 2.92. Besides, the “E^1½” value in [3] (E½ = (Epc+Epa)/2, DMSO) is listed as −0.563 V. Moreover, the “E^2½” value in [3] (E½ = (Epc+Epa)/2, second wave, irr: irreversible reduction) is given as −1.126 V. Also, the Epa2 in [3] (setting [12]) was −1.120 V. Besides, the Ipc2/Ipa2 in [3] (setting [12]) is on record as 1.75. The “ΔEp (first wave)” value in data set [3] (DMSO) is 114 mV. In data set [3] (ΔE½ = E^1½-E^2½), the ΔE½ came out at 563 mV. For the same compound, the “second order rate constant ki/KI” value in [5] came out at 1180 M⁻¹ s⁻¹. For the same compound, in the data set on S. mansoni worms, the “antischistosomal activity against cultured ex vivo worms” value is on record as “active”. In the data set with S. mansoni worms (50 μM, human red blood cells 10 μl/well, 24 hours), the “survival rates in the presence versus absence of RBCs after 24 hours” value is given as “identical”. Further, the “dead parasites in the absence versus presence of RBCs after 48 hours” value in the data set with S. mansoni worms (50 μM, human red blood cells 10 μl/well, 48 hours) was “more parasites were dead in the absence of RBCs than in the presence of RBCs”.
For orientation: pKa means the pH at which an ionisable group is half protonated. For the compound `COc1ccc(OCC2=C(C(F)F)C(=O)c3ccccc3C2=O)cc1C(F)(F)F` [Compound 9, 2-(difluoromethyl)-3-((4-methoxy-3-(trifluoromethyl)phenoxy)methyl)naphthalene-1,4-dione], the “decrease of the k2 values compared to the difluoromenadione itself” value in data set [7] was ~10 fold. For the same compound, in data set [8], the “SmTGR inactivation in the absence of NADPH” value is on record as “resulted in inactivation”. Moreover, the pKa in data set [9] was ~7.1. For the same compound, the Epa1 in [3] (setting [11]) is −0.215 V. Moreover, in data set [3] (DMSO), the Ipc1/Ipa1 was 1.67 and the “ΔEp (first wave)” value is 111 mV. The “E^1½” value in data set [3] (E½ = (Epc+Epa)/2, DMSO) is recorded as −0.271 V. Moreover, the IC50 in [4] came out at 46 nM. Further, in data set [10], 11200 nM corresponded to half-maximal inhibition (IC50 at 3 days). In the data set on S. mansoni worms, the “antischistosomal activity against cultured ex vivo worms” value is “inactive”. For the same compound, in the data set with S. mansoni worms (50 μM, with or without human red blood cells (10 μl/well)), the “killing of worms whether RBCs were present or not” value was “no effect on killing the worms”.
